Drawing on patent US8492410B2, “Pyridine derivatives as sphingosine 1-phosphate (S1P) receptor modulators” (Allergan, Inc., priority 2010, dated 2013), this text covers EC50 for 30 compounds.

In general, EC50 refers to the concentration that produces a half-maximal response. Higher therefore signals a less potent agent.

The target of the assay is T1, human S1P1 receptor (Homo sapiens, UniProt P21453).
T1 construct: expressed in transfected cells; membranes were used
As to the kind of experiment: GTP γ35S binding assay for S1P1 activity. Type of assay: biochemical. Conditions: activity potency from GTP γ35S binding; 5 μg membrane protein, 30 min at 25° C., test compounds 0.08 to 5,000 nM. How it is done:
Compounds were synthesized and tested for S1P1 activity using the GTP γ^35S binding assay. These compounds may be assessed for their ability to activate or block activation of the human S1P1 receptor in cells stably expressing the S1P1 receptor.
GTP γ^35S binding was measured in the medium containing (mM) HEPES 25, pH 7.4, MgCl2 10, NaCl 100, dithitothreitol 0.5, digitonin 0.003%, 0.2 nM GTP γ^35S, and 5 μg membrane protein in a volume of 150 μl. Test compounds were included in the concentration range from 0.08 to 5,000 nM unless indicated otherwise. Membranes were incubated with 100 μM 5′-adenylylimmidodiphosphate for 30 min, and subsequently with 10 μM GDP for 10 min on ice. Drug solutions and membrane were mixed, and then reactions were initiated by adding GTP γ^35S and continued for 30 min at 25° C. Reaction mixtures were filtered over Whatman GF/B filters under vacuum, and washed three times with 3 mL of ice-cold buffer (HEPES 25, pH7.4, MgCl2 10 and NaCl 100). Filters were dried and mixed with scintillant, and counted for ^35S activity using a 8-counter. Agonist-induced GTP γ^35S binding was obtained by subtracting that in the absence of agonist. Binding data were analyzed using a non-linear regression method. In case of antagonist assay, the reaction mixture contained 10 nM S1P in the presence of test antagonist at concentrations ranging from 0.08 to 5000 nM.

T1 sequence (P21453 whole entry): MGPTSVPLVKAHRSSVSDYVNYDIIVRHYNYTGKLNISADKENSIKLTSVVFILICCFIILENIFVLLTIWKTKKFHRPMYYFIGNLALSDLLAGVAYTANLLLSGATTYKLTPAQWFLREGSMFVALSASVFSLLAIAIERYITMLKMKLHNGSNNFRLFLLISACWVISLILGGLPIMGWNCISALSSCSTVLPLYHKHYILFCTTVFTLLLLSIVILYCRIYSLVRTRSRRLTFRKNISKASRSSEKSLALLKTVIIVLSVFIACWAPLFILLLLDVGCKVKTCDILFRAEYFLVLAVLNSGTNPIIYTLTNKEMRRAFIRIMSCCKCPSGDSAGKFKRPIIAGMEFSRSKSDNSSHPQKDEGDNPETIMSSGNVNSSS

Regarding `CNc1ncccc1-c1noc(C(CC2CCCC2)c2cccc(Cl)c2)n1` (stereo not drawn) [3-{5-[1-(3-chlorophenyl)-2-cyclopentylethyl]-1,2,4-oxadiazol-3-yl}-N-methylpyridin-2-amine], the EC50 amounted to 1860 nM.
The value for `CNc1ncccc1-c1noc(C(Cc2ccc(C)c(C)c2)c2cccs2)n1` (stereo not drawn) [Compound 27, 3-(5-(2-(3,4-dimethylphenyl)-1-(thiophen-2-yl)ethyl)-1,2,4-oxadiazol-3-yl)-N-methylpyridin-2-amine] was 524 nM.
`CNc1ncccc1-c1noc(C(Cc2ccc(C)cc2)c2cccs2)n1` (stereo not drawn) [Compound 26, N-methyl-3-(5-(1-(thiophen-2-yl)-2-(p-tolyl)ethyl)-1,2,4-oxadiazol-3-yl)pyridin-2-amine] showed an EC50 of 928 nM.
The figure for `CNc1ncccc1-c1noc(C(Cc2ccc(C)c(C)c2)c2cccc(C(F)(F)F)c2)n1` (stereo not drawn) [3-(5-{2-(3,4-dimethylphenyl)-1-[3-(trifluoromethyl)phenyl]ethyl}-1,2,4-oxadiazol-3-yl)-N-methylpyridin-2-amine] is 167 nM.
The figure for `CNc1ncccc1-c1noc(C(Cc2ccc(C)c(C)c2)c2ccsc2)n1` (stereo not drawn) [Compound 29, 3-(5-(2-(3,4-dimethylphenyl)-1-(thiophen-3-yl)ethyl)-1,2,4-oxadiazol-3-yl)-N-methylpyridin-2-amine] is 296 nM.
The value for `CNc1ncccc1-c1noc(C(Cc2cccc(C)c2)c2cccc(Cl)c2)n1` (stereo not drawn) [3-{5-[1-(3-chlorophenyl)-2-(3-methylphenyl)ethyl]-1,2,4-oxadiazol-3-yl}-N-methylpyridin-2-amine] was 125 nM; that for `CNc1ncccc1-c1noc(C(Cc2ccc(C)c(C)c2)c2cccc(Cl)c2)n1` (stereo not drawn) [Compound 2, 3-{5-[2-(3,4-dimethylphenyl)-1-(3-chlorophenyl)ethyl]-1,2,4-oxadiazol-3-yl}-N-methylpyridin-2-amine] was 66.4 nM; that for `CNc1ncccc1-c1noc(C(CC2CCCCC2)c2cccc(Cl)c2)n1` (stereo not drawn) [3-{5-[1-(3-chlorophenyl)-2-cyclohexylethyl]-1,2,4-oxadiazol-3-yl}-N-methylpyridin-2-amine] was 348 nM.
Consider `CNc1ncccc1-c1noc(C(Cc2ccc(C)c(C)c2)c2cccc(C)c2)n1` (stereo not drawn) [3-{5-[2-(3,4-dimethylphenyl)-1-(3-methylphenyl)ethyl]-1,2,4-oxadiazol-3-yl}-N-methylpyridin-2-amine], for which the concentration for a half-maximal effect (EC50) was found to be 50.2 nM.
The value for `CNc1ncccc1-c1noc(C(Cc2ccc(C)c(C)c2)c2ccccc2)n1` (stereo not drawn) [3-{5-[2-(3,4-dimethylphenyl)-1-phenylethyl]-1,2,4-oxadiazol-3-yl}-N-methylpyridin-2-amine] was 912 nM.
The value for `CNc1ncccc1-c1noc(C(Cc2ccc(C)c(C)c2)c2cccc([N+](=O)[O-])c2)n1` (stereo not drawn) [3-{5-[2-(3,4-dimethylphenyl)-1-(3-nitrophenyl)ethyl]-1,2,4-oxadiazol-3-yl}-N-methylpyridin-2-amine] was 86.4 nM; that for `CNc1ncccc1-c1noc(C(Cc2ccc(C)cc2)c2ccsc2)n1` (stereo not drawn) [Compound 1, N-methyl-3-(5-(1-(thiophen-3-yl)-2-(p-tolyl)ethyl)-1,2,4-oxadiazol-3-yl)pyridin-2-amine] was 533 nM.
Consider `CNc1ncccc1-c1noc(C(Cc2ccc(C)c(C)c2)c2cccc(F)c2)n1` (stereo not drawn) [3-{5-[2-(3,4-dimethylphenyl)-1-(3-fluorophenyl)ethyl]-1,2,4-oxadiazol-3-yl}-N-methylpyridin-2-amine], for which the 50% effective concentration (EC50) came to 35.7 nM.
The figure for `CNc1ncccc1-c1noc(C(Cc2ccc(C)c(C)c2)c2cc(F)cc(F)c2)n1` (stereo not drawn) [Compound 23, 3-(5-(1-(3,5-difluorophenyl)-2-(3,4-dimethylphenyl)ethyl)-1,2,4-oxadiazol-3-yl)-N-methylpyridin-2-amine] is 12 nM; for `CNc1ncccc1-c1noc(C(Cc2ccccc2)c2ccc(Cl)cc2)n1` (stereo not drawn) [3-{5-[1-(4-chlorophenyl)-2-phenylethyl]-1,2,4-oxadiazol-3-yl}-N-methylpyridin-2-amine] it is 2400 nM; for `CNc1ncccc1-c1noc(C(Cc2ccc(Cl)c(Cl)c2)c2ccc(Cl)cc2)n1` (stereo not drawn) [3-{5-[1-(4-chlorophenyl)-2-(3,4-dichlorophenyl)ethyl]-1,2,4-oxadiazol-3-yl}-N-methylpyridin-2-amine] it is 2020 nM.
In turn, `CNc1ncccc1-c1noc(C(Cc2ccc(C)c(C)c2)c2cccc(OC)c2)n1` (stereo not drawn) [3-{5-[2-(3,4-dimethylphenyl)-1-(3-methoxyphenyl)ethyl]-1,2,4-oxadiazol-3-yl}-N-methylpyridin-2-amine] showed a concentration giving a half-maximal response (EC50) of 77.6 nM.
The value for `CNc1ncccc1-c1noc(C(Cc2ccc(C)c(C)c2)c2cc(C)cc(C)c2)n1` (stereo not drawn) [Compound 25, 3-(5-(2-(3,4-dimethylphenyl)-1-(3,5-dimethylphenyl)ethyl)-1,2,4-oxadiazol-3-yl)-N-methylpyridin-2-amine] was 161 nM.
The figure for `CNc1ncccc1-c1noc(C(Cc2ccccc2)c2cccc(Cl)c2)n1` (stereo not drawn) [3-{5-[1-(3-chlorophenyl)-2-phenylethyl]-1,2,4-oxadiazol-3-yl}-N-methylpyridin-2-amine] is 112 nM; for `CNc1ncccc1-c1noc(C(Cc2ccc(C)c(C)c2)c2cncc(Cl)c2)n1` (stereo not drawn) [3-{5-[1-(5-chloropyridin-3-yl)-2-(3,4-dimethylphenyl)ethyl]-1,2,4-oxadiazol-3-yl}-N-methylpyridin-2-amine] it is 14.5 nM; for `CCc1cccc(C(Cc2ccc(C)c(C)c2)c2nc(-c3cccnc3NC)no2)c1` (stereo not drawn) [3-{5-[2-(3,4-dimethylphenyl)-1-(3-ethylphenyl)ethyl]-1,2,4-oxadiazol-3-yl}-N-methylpyridin-2-amine] it is 61.8 nM.
The figure for `CNc1ncccc1-c1noc(C(Cc2ccc(C)c(C)c2)c2cccc(Br)c2)n1` (stereo not drawn) [Compound 3, 3-{5-[2-(3,4-dimethylphenyl)-1-(3-bromophenyl)ethyl]-1,2,4-oxadiazol-3-yl}-N-methylpyridin-2-amine] is 50.6 nM.
`CNc1ncccc1-c1noc(C(Cc2ccc(C)cc2)c2cccc(Cl)c2)n1` (stereo not drawn) [3-{5-[1-(3-chlorophenyl)-2-(4-methylphenyl)ethyl]-1,2,4-oxadiazol-3-yl}-N-methylpyridin-2-amine] had an EC50 of 78.3 nM.
The figure for `CNc1ncccc1-c1noc(C(Cc2ccc(C)c(C)c2)c2ccc(Cl)nc2)n1` (stereo not drawn) [3-{5-[1-(6-chloropyridin-3-yl)-2-(3,4-dimethylphenyl)ethyl]-1,2,4-oxadiazol-3-yl}-N-methylpyridin-2-amine] is 274 nM; for `CNc1ncccc1-c1noc(C(Cc2ccc(C)c(C)c2)c2ccc(Cl)cc2)n1` (stereo not drawn) [Compound 10, 3-{5-[2-(3,4-dimethylphenyl)-1-(4-chlorophenyl)ethyl]-1,2,4-oxadiazol-3-yl}-N-methylpyridin-2-amine] it is 470 nM.
The value for `CNc1ncccc1-c1noc(C(Cc2ccccc2)c2ccccc2)n1` (stereo not drawn) [Compound 24, 3-(5-(1,2-diphenylethyl)-1,2,4-oxadiazol-3-yl)-N-methylpyridin-2-amine] was 1240 nM.
The value for `CNc1ncccc1-c1noc(C(Cc2ccc(C)c(C)c2)c2ccc(C(F)(F)F)cc2)n1` (stereo not drawn) [3-(5-{2-(3,4-dimethylphenyl)-1-[4-(trifluoromethyl)phenyl]ethyl}-1,2,4-oxadiazol-3-yl)-N-methylpyridin-2-amine] was 2260 nM; that for `CNc1ncccc1-c1noc(C(Cc2ccc(CC(C)C)cc2)c2cccc(Cl)c2)n1` (stereo not drawn) [3-{5-[1-(3-chlorophenyl)-2-(4-isobutylphenyl)ethyl]-1,2,4-oxadiazol-3-yl}-N-methylpyridin-2-amine] was 2090 nM; that for `CNc1ncccc1-c1noc(C(Cc2ccc(C)c(C)c2)c2ccc(OC)cc2)n1` (stereo not drawn) [3-{5-[2-(3,4-dimethylphenyl)-1-(4-methoxyphenyl)ethyl]-1,2,4-oxadiazol-3-yl}-N-methylpyridin-2-amine] was 1330 nM.
In the case of `CNc1ncccc1-c1noc(C(Cc2cc(C)cc(C)c2)c2ccc(Cl)nc2)n1` (stereo not drawn) [3-{5-[1-(6-chloropyridin-3-yl)-2-(3,5-dimethylphenyl)ethyl]-1,2,4-oxadiazol-3-yl}-N-methylpyridin-2-amine], the EC50 was 2760 nM.
